Source: ChEMBL document CHEMBL5034018, “LXR-Mediated Regulation of Marine-Derived Piericidins Aggravates High-Cholesterol Diet-Induced Cholesterol Metabolism Disorder in Mice” (J Med Chem, 2021)
The source made the active and inactive calls. The calls are words filed in the database; no cut-off is given here.

Tests used:
[1] = tested on: Mus musculus; assay: Induction of histopathological changes in HCD-fed C57BL/6 mouse assessed as striking subcapsular foci at 0.8 mg/kg, ip; type: organism-based; conditions: in vivo
[2] = tested on: Mus musculus; assay: Induction of HCD-induced cholestasis in C57BL/6 mouse assessed as fold increase in liver total cholesterol level at 0.8 mg/kg, ip; type: organism-based; conditions: in vivo
[3] = Toxicity in renal carcinoma xenografted C57BL/6 mouse assessed as change in IL-1beta level at 0.8 mg/kg, ip; type: organism-based; conditions: in vivo
[4] = Effect on bile acid homeostasis in HCD-fed C57BL/6 mouse assessed as down regulation of Ost-alpha mRNA expression by RT-qPCR analysis; type: functional
[5] = Induction of Cholesterol accumulation in human HepG2 cells assessed as fold increase in LDL-cholesterol level at 5 uM after 48 hrs; type: functional
[6] = Hepatotoxicity in renal carcinoma xenografted C57BL/6 mouse assessed as liver swelling at 0.8 mg/kg, ip; type: toxicity, organism-based; conditions: in vivo
[7] = Toxicity in renal carcinoma xenografted C57BL/6 mouse assessed as effect on visceral coefficient of heart at 0.8 mg/kg, ip; type: organism-based; conditions: in vivo
[8] = species on record: Mus musculus; assay: Effect on bile acid homeostasis in HCD-fed C57BL/6 mouse assessed as change in Ppar-alpha mRNA expression by RT-qPCR analysis; type: functional
[9] = Hepatotoxicity in renal carcinoma xenografted C57BL/6 mouse assessed as appearance of pyknotic nucleus at 0.8 mg/kg, ip by histological analysis; type: toxicity, organism-based; conditions: in vivo
[10] = Toxicity in renal carcinoma xenografted C57BL/6 mouse assessed as effect on visceral coefficient of liver at 0.8 mg/kg, ip; type: organism-based; conditions: in vivo
[11] = Hepatotoxicity in renal carcinoma xenografted C57BL/6 mouse assessed as fold increase in plasma AST at 0.8 mg/kg, ip; type: toxicity, organism-based; conditions: in vivo
[12] = species on record: Mus musculus; assay: Effect on bile acid homeostasis in HCD-fed C57BL/6 mouse assessed as change in Bsep mRNA expression by RT-qPCR analysis; type: functional
[13] = species on record: Mus musculus; assay: Effect on bile acid homeostasis in HCD-fed C57BL/6 mouse assessed as change in Mrp2 mRNA expression by RT-qPCR analysis; type: functional
[14] = Effect on bile acid homeostasis in HCD-fed C57BL/6 mouse assessed as decrease in FXR mRNA expression by RT-qPCR analysis; type: functional; set-up: scale not given: the % may be the effect or the level left
[15] = tested on: Mus musculus; assay: Reversal of HCD-induced LXRalpha activation in C57BL/6 mouse assessed as decrease in LXRalpha protein level at 0.8 mg/kg, ip; type: functional; set-up: scale not given: the % may be the effect or the level left
[16] = Effect on bile acid homeostasis in HCD-fed C57BL/6 mouse assessed as reversal of LXRbeta mRNA upregulation by RT-qPCR analysis; type: functional
[17] = tested on: Mus musculus; assay: Induction of histopathological changes in HCD-fed C57BL/6 mouse assessed as swelling gallbladder size at 0.8 mg/kg, ip; type: organism-based; conditions: in vivo
[18] = Effect on bile acid homeostasis in HCD-fed C57BL/6 mouse assessed as inhibition of Cyp7a1 mRNA expression by RT-qPCR analysis; type: functional; set-up: scale not given: the % may be the effect or the level left
[19] = Down regulation of Cyp7a1 mRNA expression level in human HepG2 cells at 5 uM by RT-qPCR analysis; type: functional
[20] = Hepatotoxicity in renal carcinoma xenografted C57BL/6 mouse assessed as white discoloration of liver at 0.8 mg/kg, ip; type: toxicity, organism-based; conditions: in vivo
[21] = tested on: Mus musculus; assay: Induction of HCD-induced cholestasis in C57BL/6 mouse assessed as fold increase in liver total bile acid level at 0.8 mg/kg, ip; type: organism-based; conditions: in vivo
[22] = tested on: HepG2; assay: Induction of mitochondrial dysfunction in human HepG2 cells assessed as increase in ROS production at 0.1 to 5 uM after 48 hrs by flow cytometric analysis; type: cell-based; conditions: hepg2, 48 h, dose 0.1-5 µM
[23] = Toxicity in HCD-fed C57BL/6 mouse assessed as fold increase in AST level at 0.8 mg/kg, ip; type: organism-based; conditions: in vivo
[24] = Toxicity in renal carcinoma xenografted C57BL/6 mouse kidney assessed as change in BUN level at 0.8 mg/kg, ip; type: organism-based; conditions: in vivo
[25] = Toxicity in renal carcinoma xenografted C57BL/6 mouse assessed as effect on visceral coefficient of spleen at 0.8 mg/kg, ip; type: organism-based; conditions: in vivo
[26] = tested on: Mus musculus; assay: Induction of histopathological changes in HCD-fed C57BL/6 mouse assessed as white discoloration of liver at 0.8 mg/kg, ip; type: organism-based; conditions: in vivo
[27] = tested on: HepG2; assay: Induction of mitochondrial membrane potential loss in human HepG2 cells assessed as intact mitochondrial membrane potential at 5 uM after 48 hrs by TMRM dye based flow cytometric analysis (reference value: 74.2%); type: cell-based; conditions: hepg2, 48 h
[28] = Effect on bile acid homeostasis in HCD-fed C57BL/6 mouse assessed as decrease in Car mRNA expression by RT-qPCR analysis; type: functional; set-up: scale not given: the % may be the effect or the level left
[29] = Toxicity in HCD-fed C57BL/6 mouse assessed as body weight loss at 0.8 mg/kg, ip measured on day 28; type: organism-based; conditions: in vivo
[30] = tested on: Mus musculus; assay: Induction of HCD-induced cholestasis in C57BL/6 mouse assessed as lipid accumulation in liver at 0.8 mg/kg, ip; type: functional, organism-based
[31] = tested on: Mus musculus; assay: Induction of HCD-induced cholestasis in C57BL/6 mouse assessed as fold increase in liver LDL-cholesterol level at 0.8 mg/kg, ip; type: organism-based; conditions: in vivo
[32] = tested on: HepG2; assay: Induction of apoptosis in human HepG2 cells assessed as change in caspase 3 protein expression at 1 to 5 uM after 48 hrs; type: functional, cell-based; conditions: dose 1-5 µM
[33] = tested on: Mus musculus; assay: Induction of hepatic pathological changes in normal chow diet fed C57BL/6 mouse at 0.8 mg/kg, ip; type: organism-based; conditions: in vivo
[34] = Down regulation of SHP mRNA level in human HepG2 cells at 5 uM by RT-qPCR analysis; type: functional
[35] = tested on: HepG2; assay: Induction of apoptosis in human HepG2 cells assessed as live cells at 5 uM measured after 48 hrs by Annexin-V-FITC/propidium iodide staining based flow cytometry (reference value: 84.5 %); type: functional
[36] = species on record: Mus musculus; assay: Effect on bile acid homeostasis in HCD-fed C57BL/6 mouse assessed as change in Car protein expression; type: functional
[37] = Toxicity in renal carcinoma xenografted C57BL/6 mouse kidney assessed as change in CRE level at 0.8 mg/kg, ip; type: organism-based; conditions: in vivo
[38] = Hepatotoxicity in renal carcinoma xenografted C57BL/6 mouse assessed as inflammatory infiltration at 0.8 mg/kg, ip by histological analysis; type: toxicity, organism-based; conditions: in vivo
[39] = Toxicity in mouse assessed as death at 10 mg/kg, po after 45 mins; type: organism-based; conditions: in vivo, 0.75 h
[40] = tested on: HepG2; assay: Cytotoxicity against human HepG2 cells assessed as reduction in cell viability at < 10 uM incubated for 48 hrs by MTT assay; type: cell-based; conditions: hepg2, 48 h
[41] = tested on: HepG2; assay: Induction of calcium signal in human HepG2 cells at 5 uM by Fluo-4AM dye based fluorescence assay; type: functional, cell-based
[42] = Effect on bile acid homeostasis in HCD-fed C57BL/6 mouse assessed as fold increase in LXRalpha mRNA expression by RT-qPCR analysis; type: functional
[43] = tested on: Mus musculus; assay: Induction of HCD-induced cholestasis in C57BL/6 mouse assessed as large scale necrotic foci at 0.8 mg/kg, ip; type: functional, organism-based

In the case of `C/C=C(\C)[C@H](O[C@@H]1O[C@H](CO)[C@@H](O)[C@H](O)[C@H]1O)[C@H](C)/C=C(C)/C=C/C/C(C)=C/Cc1nc(OC)c(OC)c(O)c1C`, the Activity [1] is reported as “Toxic”, the “fold change (FC)” value [2] is reported as 3.8 and the Activity [3] is reported as “Non-Toxic”. The Activity [4] was 44%, the “fold change (FC)” value [5] was 3.1 and the Activity [6] was “Non-Toxic”. The Activity [7] was “Non-Toxic”, the Activity [8] was “inactive” and the Activity [9] was “Toxic”. For the same compound, the Activity [10] was “Non-Toxic”, the “fold change (FC)” value [11] was 2.2 and the Activity [12] was “inactive”. The Activity [13] was “inactive”, the Activity [14] was 60% and the Activity [15] was 46%. The Activity [16] was 72%, the Activity [17] was “Toxic” and the Activity [18] was 14%. The Activity [19] was 38%, the Activity [20] was “Non-Toxic” and the “fold change (FC)” value [21] was 2.3. For the same compound, the Activity [22] was “Non-Toxic”, the “fold change (FC)” value [23] was 2.3 and the Activity [24] was “Non-Toxic”. The Activity [25] was “Non-Toxic”, the Activity [26] was “Toxic” and the Activity [27] was 16.6%. The Activity [28] was 86%, the Activity [29] was “Toxic” and the Activity [30] was “Active”. The “fold change (FC)” value [31] was 2.9, the Activity [32] was “Toxic” and the Activity [33] was “Non-Toxic”. The Activity [34] was 61%, the Activity [35] was 64.3% and the Activity [36] was “inactive”. The Activity [37] was “Non-Toxic”, the Activity [38] was “Toxic” and the Activity [39] was “Toxic”. The Activity [40] was “Non-Toxic”, the Activity [41] was “Active” and the “fold change (FC)” value [42] was 1.4. The Activity [43] was “Active”.

For `C/C=C(\C)[C@H](O)[C@H](C)/C=C(C)/C=C/C/C(C)=C/Cc1nc(OC)c(OC)c(O)c1C` [PIERICIDIN A], the Activity [1] was “Toxic”, the “fold change (FC)” value [2] was 2.7 and the Activity [3] was “Non-Toxic”. For the same compound, the Activity [4] was 10%, the “fold change (FC)” value [5] was 2.7 and the Activity [6] was “Non-Toxic”. For the same compound, the Activity [7] was “Non-Toxic”, the Activity [8] was “inactive” and the Activity [9] was “Toxic”. For the same compound, the Activity [10] was “Non-Toxic”, the “fold change (FC)” value [11] was 1.6 and the Activity [12] was “inactive”. For the same compound, the Activity [13] was “inactive”, the Activity [14] was 58% and the Activity [15] was 72%. For the same compound, the Activity [16] was 72%, the Activity [17] was “Toxic” and the Activity [18] was 14%. The Activity [19] was 26%, the Activity [20] was “Non-Toxic” and the “fold change (FC)” value [21] was 2.2. For the same compound, the Activity [22] was “Non-Toxic”, the “fold change (FC)” value [23] was 2.3 and the Activity [24] was “Non-Toxic”. For the same compound, the Activity [25] was “Non-Toxic”, the Activity [26] was “Toxic” and the Activity [27] was 26.4%. The Activity [28] was 50%, the Activity [29] was “Toxic” and the Activity [30] was “Active”. For the same compound, the “fold change (FC)” value [31] was 2.2, the Activity [32] was “Toxic” and the Activity [33] was “Non-Toxic”. The Activity [34] was 30%, the Activity [35] was 75.4% and the Activity [36] was “inactive”. For the same compound, the Activity [37] was “Non-Toxic”, the Activity [38] was “Toxic” and the Activity [39] was “Non-Toxic”. The Activity [40] was “Non-Toxic”, the Activity [41] was “Active” and the “fold change (FC)” value [42] was 1.3. For the same compound, the Activity [43] was “Active”.
